# Measured values published in patent publication US11806352B2, “Theobromine for increasing HDL-cholesterol” (UPFIELD EUROPE B.V., priority 2010, dated 2023).
# Values joined by “and” are separate entries in the source; they are usually repeats but may differ in a detail not shown here. Equal values may be shown once.
# Key:
# [1] = system: healthy males and females; test: Example 2: randomized placebo-controlled 2 by 2 factorial parallel study, dairy drinks, blood lipid profile; type: in vivo, humans
# Experimental: In a randomized controlled intervention study with 153 healthy males and females the effect of drinks containing cocoa, added theobromine or a combination of cocoa and added theobromine was assessed on HDL cholesterol (HDL-C). As a secondary objective the effect of the various drinks on total cholesterol (TC), LDL cholesterol (LDL-C), Triglycerides (TG) and blood pressure (BP) was assessed. […] After a run-in period of 2 weeks the subjects consumed for 4 weeks daily (in the morning one hour before breakfast) 200 ml acidified dairy drink as in table 5, with added to that 1) none (control drink), 2) 5.9 g cocoa powder (Acticoa, Barry-Callebaut) containing about 500 mg polyphenols and 150 mg theobromine 3) about 850 mg synthetic theobromine (Fagron) and 4) 5.9 g cocoa powder containing 500 mg polyphenols and 150 mg theobromine plus added thereto about 850 mg synthetic theobromine (Fagron) (in total about 1 g theobromine). The synthetic theobromine used was: theobromine complying with European Pharmacopeia 5.7, as available from […], Belgium. For preparing the test products containing theobromine, theobromine was dissolved in a 1 M NaOH solution to create a theobromine stock solution, containing approximately 170 mg/ml of thebromine. The various drinks used in the trial have been made using the following processing: • mixing of the pectin with all of the sugar • dispersing the pectin/sugar mix with part of the demi water at 80° C. to prepare a pectin slurry • dissolving smp in the remainder of the demi water at a temperature of 40° C. • adding the cream • adding the xanthan gum under vigorous mixing for 15 minutes • adding the pectin slurry • adding sucralose • (depending on the drink: adding the cacao slowly under vigorous mixing) • (depending on the drink: adding the theobromine solution) • adding the sunflower oil • adding the flavours and colorants • acidifying the premix with lactic acid until pH 4.2 Inclusion criteria: generally healthy men and pre-menopausal women, age 40-70, with a 10-year risk of developing CHD<10%, not on active cholesterol-lowering or anti-hypertensive treatment and non-smoking. Details of the subject characteristics are set out in table 6. Venous blood samples were drawn from the antecubital vein in SST II advance BD tubes in fasting condition (morning, before breakfast) for blood lipid profile (HDL-C, LDL-C, total cholesterol (TC), triglycerides, HDL-C being herein high density lipoprotein cholesterol, and LDL-C herein being low density lipoprotein cholesterol). The blood samples were taken twice at baseline and were repeated twice after the end of the intervention period. All measurements were done with standard laboratory techniques. Serum lipid outcomes were done in the Intention to treat (ITT) and Per Protocol (PP) population. The statistical analysis was done according to a full 2×2 factorial design including interaction of theobromine and cocoa. Gender within treatment and baseline blood lipids were included in the model as covariates. A 2 sided p-value<0.05 was considered significant.
# [2] = system: healthy males and females; test: Example 2: same intervention study, blood pressure; type: in vivo, humans
# Experimental: In a randomized controlled intervention study with 153 healthy males and females the effect of drinks containing cocoa, added theobromine or a combination of cocoa and added theobromine was assessed on HDL cholesterol (HDL-C). As a secondary objective the effect of the various drinks on total cholesterol (TC), LDL cholesterol (LDL-C), Triglycerides (TG) and blood pressure (BP) was assessed.
# After a run-in period of 2 weeks the subjects consumed for 4 weeks daily (in the morning one hour before breakfast) 200 ml acidified dairy drink as in table 5, with added to that 1) none (control drink), 2) 5.9 g cocoa powder (Acticoa, Barry-Callebaut) containing about 500 mg polyphenols and 150 mg theobromine 3) about 850 mg synthetic theobromine (Fagron) and 4) 5.9 g cocoa powder containing 500 mg polyphenols and 150 mg theobromine plus added thereto about 850 mg synthetic theobromine (Fagron) (in total about 1 g theobromine). The synthetic theobromine used was: theobromine complying with European Pharmacopeia 5.7, as available from Fagron, Waregem, Belgium.
# Inclusion criteria: generally healthy men and pre-menopausal women, age 40-70, with a 10-year risk of developing CHD<10%, not on active cholesterol-lowering or anti-hypertensive treatment and non-smoking. Details of the subject characteristics are set out in table 6.
# The statistical analysis was done according to a full 2×2 factorial design including interaction of theobromine and cocoa. Gender within treatment and baseline blood lipids were included in the model as covariates. A 2 sided p-value<0.05 was considered significant.
# Wistar rats [3] = conditions: 700 mg/kg body weight; cited from earlier work
# Wistar rats [4] = conditions: rats fed a diet supplemented with 0.3% of theobromine; cited from earlier work
# [5] = after 4 weeks, ITT, baseline ratio and gender as covariables
# [6] = fasting blood, after 4 weeks daily 200 ml drink, ITT, baseline and gender as covariables
# [7] = pair-wise comparison, treatment A = Placebo, 4 weeks
smiles,measurement,setting,value
"Cn1cnc2c1c(=O)[nH]c(=O)n2C [Theobromine, 2,6-dihydroxy-3,7-dimethylpurine]",HDL-C increase compared to placebo,[1]; 4 weeks,~10%
same,Serum LDL-C decrease compared to placebo,[1]; 4 weeks,about 5%
same,Serum LDL-C decrease,"[1]; 4 weeks, compared to placebo",0.18 mmol/L
same,increase in ApoA1 concentrations,"[1]; 4 weeks, main apoprotein found in HDL particles",0.11
same,"Triglyceride, Mean","[1]; after 4 weeks, ITT, baseline and gender as covariables",1.05 mmol/L
same,"HDL-C/LDL-C ratio, Mean",[1]; [5],0.52
same,"HDL-C/non-HDL-C ratio, Mean",[1]; [5],0.43
same,"Total cholesterol, Mean","[1]; fasting blood, after 4 weeks daily 200 ml drink, ITT n=143, baseline and gender as covariables",5.82 mmol/L
same,"HDL-C, Mean",[1]; [6],1.75 mmol/L
same,"LDL-C, Mean",[1]; [6],3.30 mmol/L
same,"HDL-C, Change (A − B)",[1]; [7],0.159 mmol/L
same,"HDL-C/LDL_c ratio, Change (A − B)",[1]; [7],0.12 and 0.117
same,"HDL-C/non-HDL-C ratio, Change (A − B)",[1]; [7],0.13 and 0.126
same,"LDL-C, Change (A − B)",[1]; [7],-0.184 mmol/L
same,"Total cholesterol, Change (A − B)",[1]; [7],-0.038 mmol/L
same,"Triglycerides, Change (A − B)",[1]; [7],0.018 mmol/L
same,"HDL-C, Change (A − B)","[1]; pair-wise comparison, treatment A = Placebo, 4 weeks, listed as theobromine",0.16 mmol/L
same,effect on blood pressure,"[2]; 4 weeks, vs control",no significant effect
same,"DBP, Mean","[2]; after 4 weeks, ITT, baseline DBP and gender as covariables",75.0 mm Hg
same,"SBP, Mean","[2]; after 4 weeks, ITT, baseline SBP and gender as covariables",121.2 mm Hg
same,"DBP, Change (A − B)",[2]; [7],−0.20 mm Hg
same,"SBP, Change (A − B)",[2]; [7],2.55 mm Hg
same,HDL-cholesterol,Wistar rats [3],elevated
same,LDL-cholesterol,Wistar rats [3],decreased
same,total cholesterol,Wistar rats [3],decreased
same,triglycerides,Wistar rats [3],decreased
same,Serum total cholesterol,Wistar rats [4],significantly increased
